Experimental data: ChEMBL document CHEMBL5291721, “A preclinical secondary pharmacology resource illuminates target-adverse drug reaction associations of marketed drugs” (Nat Commun, 2023)

Key:
Androgen receptor = target: T1, Androgen receptor (Homo sapiens, UniProt P10275)
T1 sequence (P10275 whole entry): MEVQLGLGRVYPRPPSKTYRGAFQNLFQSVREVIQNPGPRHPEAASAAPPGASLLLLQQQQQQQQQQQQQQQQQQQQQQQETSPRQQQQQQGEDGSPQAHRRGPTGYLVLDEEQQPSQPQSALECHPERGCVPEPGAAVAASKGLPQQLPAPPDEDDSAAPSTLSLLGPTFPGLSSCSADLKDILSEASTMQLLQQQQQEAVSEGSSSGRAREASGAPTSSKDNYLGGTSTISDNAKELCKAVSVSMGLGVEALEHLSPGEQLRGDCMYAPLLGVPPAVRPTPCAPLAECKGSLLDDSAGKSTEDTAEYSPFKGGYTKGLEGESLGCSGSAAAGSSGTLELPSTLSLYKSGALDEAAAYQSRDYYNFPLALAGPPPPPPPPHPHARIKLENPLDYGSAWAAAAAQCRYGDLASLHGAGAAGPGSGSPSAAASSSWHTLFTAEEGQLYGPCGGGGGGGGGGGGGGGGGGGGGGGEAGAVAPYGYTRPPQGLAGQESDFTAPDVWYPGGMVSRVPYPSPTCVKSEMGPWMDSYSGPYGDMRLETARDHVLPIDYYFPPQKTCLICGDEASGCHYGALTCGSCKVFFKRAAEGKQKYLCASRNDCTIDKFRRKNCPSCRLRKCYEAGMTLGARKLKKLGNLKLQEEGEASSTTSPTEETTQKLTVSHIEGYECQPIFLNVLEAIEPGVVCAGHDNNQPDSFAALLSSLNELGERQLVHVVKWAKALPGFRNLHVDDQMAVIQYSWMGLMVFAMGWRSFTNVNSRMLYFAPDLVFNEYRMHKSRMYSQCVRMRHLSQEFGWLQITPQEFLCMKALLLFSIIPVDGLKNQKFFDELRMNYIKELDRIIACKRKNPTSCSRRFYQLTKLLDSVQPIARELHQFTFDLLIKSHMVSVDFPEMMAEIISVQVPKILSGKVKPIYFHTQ

Estrogen receptor = target: T2, Estrogen receptor (Homo sapiens, UniProt P03372)
T2 sequence (P03372 whole entry): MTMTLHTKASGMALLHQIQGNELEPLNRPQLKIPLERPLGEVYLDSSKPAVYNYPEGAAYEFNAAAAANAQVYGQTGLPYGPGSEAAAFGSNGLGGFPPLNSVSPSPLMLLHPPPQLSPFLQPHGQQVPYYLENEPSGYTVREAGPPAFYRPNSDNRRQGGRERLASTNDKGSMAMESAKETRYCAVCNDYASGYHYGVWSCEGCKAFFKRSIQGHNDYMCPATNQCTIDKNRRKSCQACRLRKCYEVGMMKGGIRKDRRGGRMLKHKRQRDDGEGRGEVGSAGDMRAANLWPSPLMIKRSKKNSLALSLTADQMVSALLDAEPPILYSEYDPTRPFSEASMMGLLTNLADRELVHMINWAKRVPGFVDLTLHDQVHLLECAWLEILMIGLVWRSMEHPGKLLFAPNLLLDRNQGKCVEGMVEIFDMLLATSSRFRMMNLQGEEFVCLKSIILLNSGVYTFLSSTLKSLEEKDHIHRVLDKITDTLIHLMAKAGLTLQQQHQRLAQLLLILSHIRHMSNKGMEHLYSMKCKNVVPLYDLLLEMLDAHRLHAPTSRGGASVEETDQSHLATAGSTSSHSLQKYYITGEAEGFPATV

[1] = target: T3, Alpha-2A adrenergic receptor (Homo sapiens, UniProt P08913); assay type: functional, cell-based
T3 sequence (P08913 whole entry): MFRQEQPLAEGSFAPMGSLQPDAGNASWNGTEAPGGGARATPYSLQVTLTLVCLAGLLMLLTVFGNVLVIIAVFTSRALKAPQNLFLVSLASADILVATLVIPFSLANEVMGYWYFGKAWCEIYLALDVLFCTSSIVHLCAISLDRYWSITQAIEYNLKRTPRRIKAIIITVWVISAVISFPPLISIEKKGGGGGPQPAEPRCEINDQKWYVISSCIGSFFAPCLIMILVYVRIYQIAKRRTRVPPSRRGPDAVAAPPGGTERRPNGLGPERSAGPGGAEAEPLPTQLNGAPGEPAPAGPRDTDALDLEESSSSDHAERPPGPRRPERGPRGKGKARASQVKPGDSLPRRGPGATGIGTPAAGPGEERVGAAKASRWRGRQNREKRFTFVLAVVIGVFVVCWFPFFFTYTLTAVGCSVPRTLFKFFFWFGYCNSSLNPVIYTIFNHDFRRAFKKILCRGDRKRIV

[2] = target: T4, Alpha-2B adrenergic receptor (Homo sapiens, UniProt P18089)
T4 sequence (P18089 whole entry): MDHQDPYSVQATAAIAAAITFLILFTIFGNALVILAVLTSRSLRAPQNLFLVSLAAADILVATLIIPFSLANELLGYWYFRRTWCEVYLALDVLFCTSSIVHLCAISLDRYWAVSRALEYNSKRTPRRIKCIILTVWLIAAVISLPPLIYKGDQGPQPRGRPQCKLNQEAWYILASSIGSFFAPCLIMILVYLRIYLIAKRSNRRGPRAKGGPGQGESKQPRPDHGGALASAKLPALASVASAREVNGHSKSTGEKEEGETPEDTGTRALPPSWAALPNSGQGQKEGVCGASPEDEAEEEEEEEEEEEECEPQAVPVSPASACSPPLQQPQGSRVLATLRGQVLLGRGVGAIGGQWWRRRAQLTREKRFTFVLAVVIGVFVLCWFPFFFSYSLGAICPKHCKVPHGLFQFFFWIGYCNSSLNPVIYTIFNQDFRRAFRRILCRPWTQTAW

[3] = target: T5, Muscarinic acetylcholine receptor M2 (Homo sapiens, UniProt P08172); assay type: functional, cell-based
T5 sequence (P08172 whole entry): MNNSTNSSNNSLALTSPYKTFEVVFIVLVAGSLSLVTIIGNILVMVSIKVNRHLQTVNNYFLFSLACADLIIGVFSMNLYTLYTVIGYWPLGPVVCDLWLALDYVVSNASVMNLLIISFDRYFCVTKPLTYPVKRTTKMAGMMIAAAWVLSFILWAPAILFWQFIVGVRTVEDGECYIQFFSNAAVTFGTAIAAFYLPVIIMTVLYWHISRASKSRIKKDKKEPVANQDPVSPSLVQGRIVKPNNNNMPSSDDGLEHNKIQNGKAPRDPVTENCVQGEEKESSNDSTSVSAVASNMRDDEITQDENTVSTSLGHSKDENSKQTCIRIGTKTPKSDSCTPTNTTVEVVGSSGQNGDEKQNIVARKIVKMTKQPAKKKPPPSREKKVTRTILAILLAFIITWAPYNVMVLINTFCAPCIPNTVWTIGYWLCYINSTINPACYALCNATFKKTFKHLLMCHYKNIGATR

[4] = target: Glutamate receptor ionotropic, NMDA 1 (Rattus norvegicus, UniProt P35439)
[5] = target: 5-hydroxytryptamine receptor 2A (Homo sapiens, UniProt P28223); assay type: functional, cell-based

Measured: AC50
Note: assay procedure not described here.

Chain of 5-hydroxytryptamine receptor 2A (P28223 whole entry): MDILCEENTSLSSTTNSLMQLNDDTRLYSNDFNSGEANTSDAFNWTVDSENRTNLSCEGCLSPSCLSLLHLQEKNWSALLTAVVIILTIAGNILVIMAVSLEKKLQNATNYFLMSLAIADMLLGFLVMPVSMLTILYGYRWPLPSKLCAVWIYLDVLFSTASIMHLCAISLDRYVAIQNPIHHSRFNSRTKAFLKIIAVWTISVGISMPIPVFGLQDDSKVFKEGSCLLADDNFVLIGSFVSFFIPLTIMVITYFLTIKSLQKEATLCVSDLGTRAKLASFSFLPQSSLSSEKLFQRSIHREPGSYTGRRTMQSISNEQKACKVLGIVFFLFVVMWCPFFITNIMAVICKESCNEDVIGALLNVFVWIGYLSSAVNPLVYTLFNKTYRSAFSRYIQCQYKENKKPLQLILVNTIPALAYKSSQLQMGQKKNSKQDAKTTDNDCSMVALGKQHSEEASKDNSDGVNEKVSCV

CN(C)c1ccc(C(=C2C=CC(=[N+](C)C)C=C2)c2ccc(N(C)C)cc2)cc1 [GENTIAN VIOLET]
> 30 µM: Androgen receptor | Estrogen receptor

HYDROXOCOBALAMIN
> 30 µM: [1] | [2] | [3] | [4] | [5]
